Test results taken from patent US8785483B2, “Methods for treating COPD” (The Board of Regents of the University of Texas System, priority 2010, dated 2014).

How the values were obtained:
[1] = test system: airway epithelial cell monolayer (SAEC at ALI); assay: Air-liquid interface culture: IL-13-induced loss of cilia and goblet cell metaplasia (H&E, PAS, β-tubulin and Muc5AC immunostaining); type: cell-based, human
Description: FIGS. 4A-4B. AR inhibition prevents IL-13-induced loss of cilia and β-tubulin in airway epithelial cell monolayer. Approximately 8.5×10^4 SAEC were seeded per 12 mm diameter PET transparent insert and cultured for 7 days in differentiation media supplied from both lower and upper sides followed by culture on ALI for 11 days for differentiation into ciliated cells. The monolayer was treated with AR inhibitor for overnight and stimulated with IL-13 for 48 h. The monolayers on the membrane inserts were fixed for 24 h in z-fix (10% buffered formalin with zinc) at 4° C., paraffin embedded and […] sections were cut. (A) The H&E stained sections were examined under the light microscope; magnification 400×. […] (B) Immunohistochemistry using β-tubulin antibodies was performed on the sections. Dark brown staining in the monolayer corresponds to cilia axoneme β-tubulin. Arrows show loss of β-tubulin as the ciliated cells transform into goblet cells. A representative photomicrograph has been shown (n=4); magnification 400×. FIGS. 5A-5B. AR inhibition prevents IL-13-induced goblet cell metaplasia and expression of Muc5AC in airway epithelial monolayer. (A) The well-differentiated airway epithelial cells at air-liquid interface (ALI) were incubated with IL-13 for 48 h without or with AR inhibitor, fidarestat. The monolayer was fixed as described and immunohistochemistry using Muc5AC antibodies was performed on the sections. A representative photomicrograph is shown (n=4); magnification 400×. […] (C) The airway epithelial monolayer was incubated with IL-13 submerged in basal medium for 48 h in the absence and presence of AR inhibitor, fidarestat. The culture medium was collected from the top chamber and utilized for determination of Muc5AC by an ELISA, (n=4); *p<0.005 vs Control; **p<0.01 vs IL-13. For air-liquid interface (ALI) culture, SAEC were seeded at 8.5×10^4 cells/12-mm-diameter PET transparent insert with […] pores (12-well millicell culture insert; Millipore) and pre-coated with rat tail collagen type-1 (Sigma-Aldrich). The cells were grown submerged in the differentiation medium as described earlier by Zhen et al. (Am J Respir Cell Mol Biol 36: 244-253, 2007). The differentiation medium contained a 1:1 mixture of DMEM and small airway epithelial growth medium supplemented as described above, except that gentamycin sulfate, amphotericin B, and triiodothyronine were replaced with 1% penicillin/streptomycin, and 50 nM all-trans retinoic acid. The SAEC were maintained submerged for the first 7 days, after which the apical medium was removed and an air-liquid interface culture was established. […] The stained sections were analyzed and representative fields were photographed using a Photometrix CoolSNAP Fx camera mounted on a NIKON Eclipse TE 200 UV microscope. […]

[2] = test system: SAEC; assay: Cytokines, chemokines and growth factors by Milliplex in SAEC culture media after CSE; type: cell-based, human; details: 24 h after CSE (50%)
Description: FIG. 2. CSE-induced changes in cytokine levels in SAEC prevented by aldose reductase (AR) inhibition. *p<0.01 Vs Control; **p<0.05 Vs CSE 50%; #p<0.001 Vs Control; ##p<0.01 Vs CSE 50% Primary human Small Airway Epithelial Cells (SAEC) obtained from Lonza (Walkersville, Md.) were normal human SAEC harvested from distal airspace of donor. The cells were cultured according to the supplier's instructions at 37° C. in humidified atmosphere containing 95% air and 5% CO2 in small airway epithelial basal medium (SABM) with supplements containing 52 μg/ml bovine pituitary extract, 0.5 ng/ml human recombinant epidermal growth factor (EGF), 0.5 μg/ml epinephrine, 1 μg/ml hydrocortisone, 10 μg/ml transferrin, 5 μg/ml insulin, 0.1 ng/ml retinoic acid (RA), 6.5 ng/ml triiodothyronine, 50 μg/ml Gentamicin/Amphotericin-B (GA-1000), and 50 μg/ml fatty acid-free bovine serum albumin (BSA). Research-grade cigarettes (1R3F) with a filter from the Kentucky Tobacco Research and Development Center at the University of Kentucky (Lexington, Ky.) were smoked to 0.5 cm above the filter in a fume hood, using a modification of the method developed by Carp and Janoff (Am Rev Respir Dis. 1978; 118(3):617-621). […] The levels of cytokines and chemokines in the supernatant were determined by Milliplex MAP kits according to the manufacturer's instructions (Millipore Corporation, Bellerica, Mass.)).

For `NC(=O)[C@@H]1C[C@]2(NC(=O)NC2=O)c2cc(F)ccc2O1` [fidarestat, (2S,4S)-2-aminoformyl-6-fluoro-spiro[chroman-4,4′-imidazolidine]-2′,5′-dione], the “decrease in number of Muc5AC positive cells” value ([1]; IL-13 48 h, Muc5AC immunostaining) was ~70%, the “ciliated morphology (β-tubulin immunostaining) after IL-13” value ([1]; fidarestat 10 μM overnight, IL-13 25 ng/ml 48 h) was “preserved the ciliated morphology” and the “differentiation of airway cells into goblet cells (PAS staining)” value ([1]; inhibitor added prior to IL-13 challenge, 48 h, data not shown) was “prevented the airway cells from differentiating into goblet cells”. The “toxic effects of AR inhibitor alone on monolayer of ciliated cells” value ([1]; inhibitor alone, no IL-13) was “no toxic effects”, the “prevention of CSE-induced increase in chemokines (G-CSF, MCP-1, GM-CSF, IP-10) and growth factors (TGF-α, VEGF)” value [2] was “more than 50%” and the “prevention of CSE-induced increase in cytokines (IL-1a, IL-8, TNF-α)” value [2] was “significantly (p<0.05 and 0.01) prevented”.
